Columns and labels:
[1] = tested on: wild oat; experiment: Test B pre/postemergence wild oat; type: in vivo, Avena fatua
Summary of the method: (§1)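 Herbicidal effect was estimated by eye on a ten-point control scale after plants spent twelve to sixteen days in a greenhouse following soil or foliar treatment. Foliar sprays targeted plants at one to four leaves; all doses were formulated in a non-phytotoxic solvent with surfactant.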

[2] = tested on: wheat; experiment: Test B pre/postemergence wheat; type: in vivo, Triticum aestivum
Summary of the method: as §1

[3] = tested on: giant foxtail; experiment: Test B pre/postemergence giant foxtail; type: in vivo, Setaria faberii
Summary of the method: as §1

[4] = tested on: rape; experiment: Test B pre/postemergence rape; type: in vivo, Brassica napus
Summary of the method: as §1

[5] = tested on: rice; experiment: Test B flood test rice; type: in vivo, Oryza sativa
Summary of the method: (§2)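 Read-out is a visual response score from 0 (no effect) to 10 (complete control), assigned by comparison with untreated controls. Treatment was applied at the 2-leaf stage, and plants stayed in the greenhouse for twelve to sixteen days before scoring.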

[6] = tested on: surinam grass; experiment: Test B pre/postemergence surinam grass; type: in vivo, Brachiaria decumbens
Summary of the method: as §1

[7] = tested on: pigweed; experiment: Test B pre/postemergence pigweed; type: in vivo, Amaranthus retroflexus
Summary of the method: as §1

[8] = tested on: corn; experiment: Test B pre/postemergence corn; type: in vivo, Zea mays
Summary of the method: as §1

[9] = tested on: soybean; experiment: Test B pre/postemergence soybean; type: in vivo, Glycine max
Summary of the method: as §1

[10] = tested on: sugar beet; experiment: Test B pre/postemergence sugar beet; type: in vivo, Beta vulgaris
Summary of the method: as §1

[11] = tested on: bedstraw; experiment: Test B pre/postemergence bedstraw; type: in vivo, Galium aparine
Summary of the method: as §1

[12] = tested on: morningglory; experiment: Test B pre/postemergence morningglory; type: in vivo, Ipomoea hederacea
Summary of the method: as §1

[13] = tested on: blackgrass; experiment: Test B pre/postemergence blackgrass; type: in vivo, Alopecurus myosuroides
Summary of the method: as §1

[14] = tested on: smallflower flatsedge; experiment: Test B flood test smallflower flatsedge; type: in vivo, Cyperus difformis
Summary of the method: as §2

[15] = tested on: cocklebur; experiment: Test B pre/postemergence cocklebur; type: in vivo, Xanthium strumarium
Summary of the method: as §1

[16] = tested on: velvetleaf; experiment: Test B pre/postemergence velvetleaf; type: in vivo, Abutilon theophrasti
Summary of the method: as §1

[17] = Postemergence, Rate 125 g/ha, scale 0 to 10, 0 is no effect, 10 is complete control
[18] = Preemergence, Rate 62 g/ha, scale of 0 to 10 where 0 is no effect and 10 is complete control
[19] = Preemergence, Rate 250 g/ha, scale of 0 to 10 where 0 is no effect and 10 is complete control
[20] = Preemergence, Rate 500 g/ha, scale of 0 to 10 where 0 is no effect and 10 is complete control
[21] = Rate 62 g/ha, Postemergence, scale 0 to 10 (0 no effect, 10 complete control)
[22] = Rate 500 g/ha, Postemergence, scale 0 to 10, 0 no effect, 10 complete control
[23] = Rate 62 g/ha, headed Pre-emergence (flood test species), scale 0 to 10 (0 no effect, 10 complete control)
[24] = Rate 125 g/ha, Pre-emergence, flood test species, scale 0 to 10 where 0 is no effect and 10 is complete control
[25] = Rate 250 g/ha, Pre-emergence, flood-test species, scale 0 to 10, 0 is no effect, 10 is complete control
[26] = Rate 500 g/ha, Pre-emergence, flood test species, scale 0 to 10 (0 no effect, 10 complete control)
[27] = Rate 250 g/ha, Postemergence, scale of 0 to 10 where 0 is no effect and 10 is complete control

Cc1c(-n2c(=O)on(C(=O)N(c3ccc(F)cc3)C(C)C)c2=O)ccc2ccccc12 [Compound 338]
Plant response rating, Wild oats [1, 17]: 0 | Wild oats plant response rating [1, 18]: 0 | Wild oats plant response rating (0 to 10 scale) ([1]; Preemergence, Rate 125 g/ha): 0 | Wild oats plant response rating [1, 19]: 0 | Wild oats plant response rating [1, 20]: 0 | Wild oats plant response rating [1, 21]: 0 | Plant response rating, Wild oats [1, 22]: 0 | Plant response rating, Wheat [2, 17]: 0 | Wheat plant response rating [2, 18]: 0 | Wheat plant response rating (0 to 10 scale) ([2]; Preemergence, Rate 125 g/ha): 0 | Wheat plant response rating [2, 19]: 0 | Wheat plant response rating [2, 20]: 0 | Wheat plant response rating [2, 21]: 0 | Plant response rating, Wheat [2, 22]: 0 | Plant response rating, Giant foxtail [3, 17]: 0 | Giant foxtail plant response rating [3, 18]: 0 | Giant foxtail plant response rating (0 to 10 scale) ([3]; Preemergence, Rate 125 g/ha): 0 | Giant foxtail plant response rating [3, 19]: 0 | Giant foxtail plant response rating [3, 20]: 9 | Giant foxtail plant response rating [3, 21]: 0 | Plant response rating, Giant foxtail [3, 22]: 0 | Plant response rating, Rape [4, 17]: 0 | Rape plant response rating [4, 18]: 0 | Rape plant response rating (0 to 10 scale) ([4]; Preemergence, Rate 125 g/ha): 0 | Rape plant response rating [4, 19]: 0 | Rape plant response rating [4, 20]: 0 | Rape plant response rating [4, 21]: 0 | Plant response rating, Rape [4, 22]: 0 | Rice plant response rating [5, 23]: 0 | Rice plant response rating [5, 24]: 0 | Rice plant response rating [5, 25]: 0 | Rice plant response rating [5, 26]: 0 | Plant response rating, B. signalgrass [6, 17]: 0 | B. signalgrass plant response rating [6, 18]: 0 | B. signalgrass plant response rating (0 to 10 scale, 0 is no effect, 10 is complete control) ([6]; Preemergence, Rate 125 g/ha): 0 | B. signalgrass plant response rating [6, 19]: 0 | B. signalgrass plant response rating [6, 20]: 0 | B. signalgrass plant response rating [6, 21]: 0 | Plant response rating, B. signalgrass [6, 27]: 0 | Plant response rating, B. signalgrass [6, 22]: 0 | Plant response rating, Redroot pigweed [7, 17]: 0 | Redroot pigweed plant response rating [7, 18]: 0 | Redroot pigweed plant response rating (0 to 10 scale) ([7]; Preemergence, Rate 125 g/ha): 0 | Redroot pigweed plant response rating [7, 19]: 0 | Redroot pigweed plant response rating [7, 20]: 0 | Redroot pigweed plant response rating [7, 21]: 0 | Plant response rating, Redroot pigweed [7, 22]: 0 | Plant response rating, Corn [8, 17]: 0 | Corn plant response rating [8, 18]: 0 | Corn plant response rating (0 to 10 scale) ([8]; Preemergence, Rate 125 g/ha): 0 | Corn plant response rating [8, 19]: 0 | Corn plant response rating [8, 20]: 0 | Corn plant response rating [8, 21]: 0 | Plant response rating, Corn [8, 22]: 0 | Plant response rating, Soybean [9, 17]: 1 | Soybean plant response rating [9, 18]: 0 | Soybean plant response rating (0 to 10 scale) ([9]; Preemergence, Rate 125 g/ha): 0 | Soybean plant response rating [9, 19]: 0 | Soybean plant response rating [9, 20]: 0 | Soybean plant response rating [9, 21]: 1 | Plant response rating, Soybean [9, 22]: 2 | Plant response rating, Sugarbeets [10, 17]: 0 | Sugarbeets plant response rating [10, 18]: 0 | Sugarbeets plant response rating (0 to 10 scale) ([10]; Preemergence, Rate 125 g/ha): 0 | Sugarbeets plant response rating [10, 19]: 0 | Sugarbeets plant response rating [10, 20]: 0 | Sugarbeets plant response rating [10, 21]: 0 | Plant response rating, Sugarbeets [10, 22]: 0 | Plant response rating, Bedstraw [11, 17]: 2 | Bedstraw plant response rating [11, 18]: 0 | Bedstraw plant response rating (0 to 10 scale) ([11]; Preemergence, Rate 125 g/ha): 0 | Bedstraw plant response rating [11, 19]: 0 | Bedstraw plant response rating [11, 20]: 0 | Bedstraw plant response rating [11, 21]: 0 | Plant response rating, Bedstraw [11, 27]: 2 | Plant response rating, Bedstraw [11, 22]: 5 | Plant response rating, Morningglory [12, 17]: 0 | Morningglory plant response rating [12, 18]: 0 | Morningglory plant response rating (0 to 10 scale) ([12]; Preemergence, Rate 125 g/ha): 0 | Morningglory plant response rating [12, 19]: 0 | Morningglory plant response rating [12, 20]: 0 | Morningglory plant response rating [12, 21]: 0 | Plant response rating, Morningglory [12, 22]: 2 | Plant response rating, Blackgrass [13, 17]: 0 | Blackgrass plant response rating [13, 18]: 0 | Blackgrass plant response rating (0 to 10 scale) ([13]; Preemergence, Rate 125 g/ha): 0 | Blackgrass plant response rating [13, 19]: 0 | Blackgrass plant response rating [13, 20]: 0 | Blackgrass plant response rating [13, 21]: 0 | Plant response rating, Blackgrass [13, 27]: 0 | Plant response rating, Blackgrass [13, 22]: 0 | S. Flatsedge plant response rating [14, 23]: 0 | S. Flatsedge plant response rating [14, 24]: 0 | S. Flatsedge plant response rating [14, 25]: 0 | S. Flatsedge plant response rating [14, 26]: 0 | Plant response rating, Cocklebur [15, 17]: 0 | Cocklebur plant response rating [15, 18]: 0 | Cocklebur plant response rating (0 to 10 scale) ([15]; Preemergence, Rate 125 g/ha): 0 | Cocklebur plant response rating [15, 19]: 0 | Cocklebur plant response rating [15, 20]: 0 | Cocklebur plant response rating [15, 21]: 0 | Plant response rating, Cocklebur [15, 22]: 0 | Plant response rating, Velvetleaf [16, 17]: 0 | Velvetleaf plant response rating [16, 18]: 0 | Velvetleaf plant response rating (0 to 10 scale) ([16]; Preemergence, Rate 125 g/ha): 0 | Velvetleaf plant response rating [16, 19]: 0 | Velvetleaf plant response rating [16, 20]: 0 | Velvetleaf plant response rating [16, 21]: 0 | Plant response rating, Velvetleaf [16, 22]: 0

Source: patent US6737383B1, “Herbicidal oxadiazolidines” (priority 1999, dated 2004)
